Measured values as given in the supplement of paper PMC10307832.

Assays:
Assay in all cases: relative viability (nuclei count vs DMSO), 5 days (fraction); higher = more cells survive
[1] = compound: CC1=CC(=NN1)NC2=CC(=NC(=N2)/C=C/C3=CC=CC=C3)N4CCN(CC4)C + CC(=O)c1c(C)c2cnc(Nc3ccc(N4CCNCC4)cn3)nc2n(C2CCCC2)c1=O [Palbociclib] (partner 0.5 µM)
In short: (§1)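 One day after seeding in 1536-well plates, lung cancer cell lines were dosed by pin tool. Dosing was either single-drug or a fixed anchor-drug dose plus five library-drug doses (not always all listed) in √10 steps. After 5 days, nuclei were stained in one fix-and-stain step and counted on 4× images, and relative viability is the nuclei count of treated wells over that of vehicle wells, given as the median of duplicate plates.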

Bortezomib + Linsitinib = compound: CC(C)C[C@H](NC(=O)[C@H](Cc1ccccc1)NC(=O)c1cnccn1)B(O)O [Bortezomib] + C[C@]1(O)C[C@@H](c2nc(-c3ccc4ccc(-c5ccccc5)nc4c3)c3c(N)nccn32)C1 [Linsitinib] (partner 1 µM)
In short: as §1

Bortezomib + Luminespib = compound: CC(C)C[C@H](NC(=O)[C@H](Cc1ccccc1)NC(=O)c1cnccn1)B(O)O [Bortezomib] + CCNC(=O)c1noc(-c2cc(C(C)C)c(O)cc2O)c1-c1ccc(CN2CCOCC2)cc1 [Luminespib] (partner 0.01 µM)
In short: as §1

Bortezomib + OSI-027 = compound: CC(C)C[C@H](NC(=O)[C@H](Cc1ccccc1)NC(=O)c1cnccn1)B(O)O [Bortezomib] + COc1cccc2cc(-c3nc([C@H]4CC[C@H](C(=O)O)CC4)n4ncnc(N)c34)[nH]c12 [OSI-027] (partner 0.5 µM)
In short: as §1

In the case of HCC-15, the relative viability ([1]; first compound 0.08 µM) is reported as 0.743, the relative viability ([1]; first compound 0.253 µM) is reported as 0.771 and the relative viability ([1]; first compound 0.8 µM) is reported as 0.716. It also gave a relative viability ([1]; first compound 2.53 µM) of 0.347, a relative viability ([1]; first compound 8 µM) of 0.114 and a relative viability (Bortezomib + Linsitinib; first compound 0.0002 µM) of 0.815. For the same cell line, the relative viability (Bortezomib + Linsitinib; first compound 0.000632 µM) was 0.947, the relative viability (Bortezomib + Linsitinib; first compound 0.002 µM) was 0.91 and the relative viability (Bortezomib + Linsitinib; first compound 0.006325 µM) was 0.504. The relative viability (Bortezomib + Linsitinib; first compound 0.02 µM) was 0.0972, the relative viability (Bortezomib + Luminespib; first compound 0.0002 µM) was 0.322 and the relative viability (Bortezomib + Luminespib; first compound 0.000632 µM) was 0.343. The relative viability (Bortezomib + Luminespib; first compound 0.002 µM) was 0.405, the relative viability (Bortezomib + Luminespib; first compound 0.006325 µM) was 0.0965 and the relative viability (Bortezomib + Luminespib; first compound 0.02 µM) was 0.0909. The relative viability (Bortezomib + OSI-027; first compound 0.0002 µM) was 0.677, the relative viability (Bortezomib + OSI-027; first compound 0.000632 µM) was 0.707 and the relative viability (Bortezomib + OSI-027; first compound 0.002 µM) was 0.667. It also gave a relative viability (Bortezomib + OSI-027; first compound 0.006325 µM) of 0.0893 and a relative viability (Bortezomib + OSI-027; first compound 0.02 µM) of 0.0735.

Cell Line HCC-44 has a relative viability ([1]; first compound 0.08 µM) of 0.984, a relative viability ([1]; first compound 0.253 µM) of 0.946 and a relative viability ([1]; first compound 0.8 µM) of 0.952. The relative viability ([1]; first compound 2.53 µM) was 1.01, the relative viability ([1]; first compound 8 µM) was 0.644 and the relative viability (Bortezomib + Linsitinib; first compound 0.0002 µM) was 0.618. The relative viability (Bortezomib + Linsitinib; first compound 0.000632 µM) was 0.61, the relative viability (Bortezomib + Linsitinib; first compound 0.002 µM) was 0.515 and the relative viability (Bortezomib + Linsitinib; first compound 0.006325 µM) was 0.19. The relative viability (Bortezomib + Linsitinib; first compound 0.02 µM) was 0.113, the relative viability (Bortezomib + Luminespib; first compound 0.0002 µM) was 0.983 and the relative viability (Bortezomib + Luminespib; first compound 0.000632 µM) was 0.984. For the same cell line, the relative viability (Bortezomib + Luminespib; first compound 0.002 µM) was 0.585, the relative viability (Bortezomib + Luminespib; first compound 0.006325 µM) was 0.187 and the relative viability (Bortezomib + Luminespib; first compound 0.02 µM) was 0.197. It also gave a relative viability (Bortezomib + OSI-027; first compound 0.0002 µM) of 0.462, a relative viability (Bortezomib + OSI-027; first compound 0.000632 µM) of 0.523 and a relative viability (Bortezomib + OSI-027; first compound 0.002 µM) of 0.472. For the same cell line, the relative viability (Bortezomib + OSI-027; first compound 0.006325 µM) was 0.252 and the relative viability (Bortezomib + OSI-027; first compound 0.02 µM) was 0.197.

Cell Line HCC-78 has a relative viability ([1]; first compound 0.08 µM) of 0.469, a relative viability ([1]; first compound 0.253 µM) of 0.439 and a relative viability ([1]; first compound 0.8 µM) of 0.546. For the same cell line, the relative viability ([1]; first compound 2.53 µM) was 0.398, the relative viability ([1]; first compound 8 µM) was 0.338 and the relative viability (Bortezomib + Linsitinib; first compound 0.0002 µM) was 0.509. It also gave a relative viability (Bortezomib + Linsitinib; first compound 0.000632 µM) of 0.394, a relative viability (Bortezomib + Linsitinib; first compound 0.002 µM) of 0.458 and a relative viability (Bortezomib + Linsitinib; first compound 0.006325 µM) of 0.128. It also gave a relative viability (Bortezomib + Linsitinib; first compound 0.02 µM) of 0.18, a relative viability (Bortezomib + OSI-027; first compound 0.0002 µM) of 0.36 and a relative viability (Bortezomib + OSI-027; first compound 0.000632 µM) of 0.352. For the same cell line, the relative viability (Bortezomib + OSI-027; first compound 0.002 µM) was 0.372, the relative viability (Bortezomib + OSI-027; first compound 0.006325 µM) was 0.385 and the relative viability (Bortezomib + OSI-027; first compound 0.02 µM) was 0.263.

In the case of HCC-366, the relative viability ([1]; first compound 0.08 µM) is reported as 0.414, the relative viability ([1]; first compound 0.253 µM) is reported as 0.368 and the relative viability ([1]; first compound 0.8 µM) is reported as 0.344. The relative viability ([1]; first compound 2.53 µM) was 0.0349, the relative viability ([1]; first compound 8 µM) was 0.019 and the relative viability (Bortezomib + Linsitinib; first compound 0.0002 µM) was 0.494. The relative viability (Bortezomib + Linsitinib; first compound 0.000632 µM) was 0.574, the relative viability (Bortezomib + Linsitinib; first compound 0.002 µM) was 0.677 and the relative viability (Bortezomib + Linsitinib; first compound 0.006325 µM) was 0.51. For the same cell line, the relative viability (Bortezomib + Linsitinib; first compound 0.02 µM) was 0.0152, the relative viability (Bortezomib + OSI-027; first compound 0.0002 µM) was 0.821 and the relative viability (Bortezomib + OSI-027; first compound 0.000632 µM) was 0.539. For the same cell line, the relative viability (Bortezomib + OSI-027; first compound 0.002 µM) was 1.1, the relative viability (Bortezomib + OSI-027; first compound 0.006325 µM) was 0.742 and the relative viability (Bortezomib + OSI-027; first compound 0.02 µM) was 0.047.

For HCC-827, the relative viability ([1]; first compound 0.08 µM) was 0.445, the relative viability ([1]; first compound 0.253 µM) was 0.514 and the relative viability ([1]; first compound 0.8 µM) was 0.505. For the same cell line, the relative viability ([1]; first compound 2.53 µM) was 0.501, the relative viability ([1]; first compound 8 µM) was 0.231 and the relative viability (Bortezomib + Linsitinib; first compound 0.0002 µM) was 0.913. For the same cell line, the relative viability (Bortezomib + Linsitinib; first compound 0.000632 µM) was 0.949, the relative viability (Bortezomib + Linsitinib; first compound 0.002 µM) was 0.821 and the relative viability (Bortezomib + Linsitinib; first compound 0.006325 µM) was 0.896. The relative viability (Bortezomib + Linsitinib; first compound 0.02 µM) was 0.141, the relative viability (Bortezomib + Luminespib; first compound 0.0002 µM) was 0.533 and the relative viability (Bortezomib + Luminespib; first compound 0.000632 µM) was 0.588. It also gave a relative viability (Bortezomib + Luminespib; first compound 0.002 µM) of 0.415, a relative viability (Bortezomib + Luminespib; first compound 0.006325 µM) of 0.152 and a relative viability (Bortezomib + Luminespib; first compound 0.02 µM) of 0.122. It also gave a relative viability (Bortezomib + OSI-027; first compound 0.0002 µM) of 0.837, a relative viability (Bortezomib + OSI-027; first compound 0.000632 µM) of 0.747 and a relative viability (Bortezomib + OSI-027; first compound 0.002 µM) of 0.859. It also gave a relative viability (Bortezomib + OSI-027; first compound 0.006325 µM) of 0.236 and a relative viability (Bortezomib + OSI-027; first compound 0.02 µM) of 0.103.

HOP-62 gave a relative viability ([1]; first compound 0.08 µM) of 0.41, a relative viability ([1]; first compound 0.253 µM) of 0.458 and a relative viability ([1]; first compound 0.8 µM) of 0.492. The relative viability ([1]; first compound 2.53 µM) was 0.371, the relative viability ([1]; first compound 8 µM) was 0.154 and the relative viability (Bortezomib + Linsitinib; first compound 0.0002 µM) was 1.04. For the same cell line, the relative viability (Bortezomib + Linsitinib; first compound 0.000632 µM) was 1.02, the relative viability (Bortezomib + Linsitinib; first compound 0.002 µM) was 0.352 and the relative viability (Bortezomib + Linsitinib; first compound 0.006325 µM) was 0.465. It also gave a relative viability (Bortezomib + Linsitinib; first compound 0.02 µM) of 0.052, a relative viability (Bortezomib + Luminespib; first compound 0.0002 µM) of 0.921 and a relative viability (Bortezomib + Luminespib; first compound 0.000632 µM) of 0.907. The relative viability (Bortezomib + Luminespib; first compound 0.002 µM) was 0.67, the relative viability (Bortezomib + Luminespib; first compound 0.006325 µM) was 0.288 and the relative viability (Bortezomib + Luminespib; first compound 0.02 µM) was 0.0887. For the same cell line, the relative viability (Bortezomib + OSI-027; first compound 0.0002 µM) was 0.981, the relative viability (Bortezomib + OSI-027; first compound 0.000632 µM) was 0.914 and the relative viability (Bortezomib + OSI-027; first compound 0.002 µM) was 0.691. For the same cell line, the relative viability (Bortezomib + OSI-027; first compound 0.006325 µM) was 0.149 and the relative viability (Bortezomib + OSI-027; first compound 0.02 µM) was 0.0803.

IA-LM was tested, and the relative viability (Bortezomib + Linsitinib; first compound 0.0002 µM) was 0.907, the relative viability (Bortezomib + Linsitinib; first compound 0.000632 µM) was 0.682 and the relative viability (Bortezomib + Linsitinib; first compound 0.002 µM) was 0.577. It also gave a relative viability (Bortezomib + Linsitinib; first compound 0.006325 µM) of 0.161 and a relative viability (Bortezomib + Linsitinib; first compound 0.02 µM) of 0.0151.

With NCI-H522 the relative viability ([1]; first compound 0.08 µM) was 1.04, the relative viability ([1]; first compound 0.253 µM) was 1.19 and the relative viability ([1]; first compound 0.8 µM) was 1.31. For the same cell line, the relative viability ([1]; first compound 2.53 µM) was 0.726, the relative viability ([1]; first compound 8 µM) was 0.357 and the relative viability (Bortezomib + Luminespib; first compound 0.0002 µM) was 0.983. It also gave a relative viability (Bortezomib + Luminespib; first compound 0.000632 µM) of 0.97, a relative viability (Bortezomib + Luminespib; first compound 0.002 µM) of 0.959 and a relative viability (Bortezomib + Luminespib; first compound 0.006325 µM) of 0.745. For the same cell line, the relative viability (Bortezomib + Luminespib; first compound 0.02 µM) was 0.367, the relative viability (Bortezomib + OSI-027; first compound 0.0002 µM) was 0.632 and the relative viability (Bortezomib + OSI-027; first compound 0.000632 µM) was 0.556. For the same cell line, the relative viability (Bortezomib + OSI-027; first compound 0.002 µM) was 0.724, the relative viability (Bortezomib + OSI-027; first compound 0.006325 µM) was 0.439 and the relative viability (Bortezomib + OSI-027; first compound 0.02 µM) was 0.465.
